Columns and labels:
supernatant hemoglobin [1] = molecular target: T1, supernatant hemoglobin (Mus musculus, UniProt P01942+P02088); assay: MAHMA/NO treatment of murine stored red blood cells; type: biochemical; settings: murine RBC stored 14 days
T1 construct: from tissue; host or cells: murine stored red blood cells (14 days), supernatant
From the text: This is likely due to the higher levels of hemolysis observed in murine red blood cell storage. At baseline levels, hemolysis is higher than in human stored red blood cells, and increasing concentrations of MAHMA/NO were required to fully oxidize the […] hemoglobin.

supernatant hemoglobin [2] = molecular target: T2, supernatant hemoglobin (Homo sapiens, UniProt P68871+P69905); assay: MAHMA/NO treatment of human stored red blood cells; type: biochemical; settings: human RBC stored 46 days
T2 construct: 99% of the supernatant hemoglobin being oxidized to methemoglobin; from tissue; host or cells: human stored red blood cells (46 days), supernatant and cells
Experimental: Human stored red blood cells (stored, 46 days) were treated with MAHMA/NO ((Z)-1-[N-Methyl-N-[6-(N-methylammoniohexyl)amino]]diazen-1-ium-1,2-diolate). […] In contrast, only 15% of the red blood cell hemoglobin was oxidized by this treatment (FIG. 14A).

[3] = Tail-cuff systolic blood pressure in db/db mice after infusion of MAHMA/NO pre-treated stored red blood cells; type: in vivo; settings: SRBC pre-treated with 1 mM MAHMA/NO; awake db/db mice
Experimental: Murine stored red blood cells were pretreated with 1 mM MAHMA before infusion into db/db mice.

human hemoglobin = molecular target: T3, human hemoglobin (Homo sapiens, UniProt P68871+P69905); assay: Methemoglobin conversion after nitric oxide gas treatment of red blood cells via membrane gas exchanger; type: biochemical; settings: 2600 ppm nitric oxide in nitrogen, single pass
T3 construct: from tissue; host or cells: human red blood cells (adsol-preserved) plus plasma with added human hemoglobin
Experimental: Plasma containing added human hemoglobin was added to adsol-preserved human red blood cells. The red blood cells were pumped (at flow rates of 5, 7.5, and 10 ml/min) through a membrane gas exchanger (Living Systems instrumentation Inc., St. Albans, Vt.), which exposed the cells (on a single pass through the gas exchanger) to 2600 ppm nitric oxide gas in nitrogen.

[4] = Hemodynamic effects of PRBC transfusion in awake lambs; type: in vivo; settings: 80 ppm during transfusion and 30 min thereafter, no L-NAME
Experimental: (§1) Invasive hemodynamic measurements were performed in 28 lambs. Anesthesia was induced by breathing 5% isoflurane (Baxter, Deerfield, Ill.) in oxygen via mask. After endotracheal intubation, animals underwent a tracheostomy and were instrumented with indwelling carotid artery and pulmonary artery catheters, as previously described (Yu et al., Anesthesiology 2010; 112:586-94). After a 2-h recovery period from general anesthesia in a large-animal restraint unit (Lomir, Malone, N.Y.), the mean arterial pressure (MAP), mean pulmonary arterial pressure (PAP), and central venous pressure were monitored continuously using a Gould 6600 amplifier system (Gould Electronics, Inc., Eastlake, Ohio). Pulmonary capillary wedge pressure (PCWP) and heart rate were intermittently measured every 10-30 min. Cardiac output was assessed by thermal dilution as the average of three measurements after intravenous bolus-injection of 10 ml ice-cold saline solution. Systemic vascular resistance index and pulmonary vascular resistance index (PVRI), as well as cardiac index, were calculated using standard formulae. Hemodynamic data was collected until 4 h after the end of transfusion.
Six groups of awake lambs were studied. […]

[5] = Non-invasive measurement of systolic blood pressure in awake mice after transfusion; type: in vivo; settings: awake db/db mice; 80 ppm from 10 min prior to transfusion until 2 h after
Experimental: Systolic blood pressure was measured with a non-invasive blood pressure system (XBP 1000, Kent Scientific, Torrington, Conn.) (Yu et al., Circulation 2008; 117: 1982-90; Yu et al., Anesthesiology 2010; 112: 586-94). All tail vein injections were performed over one minute.

[6] = Hemodynamic effects of PRBC transfusion in lamb model of L-NAME-induced endothelial dysfunction; type: in vivo; settings: lambs pretreated with L-NAME
Experimental: as §1
(§2) Three additional groups of lambs were studied after intravenous infusion of the NOS inhibitor, N^G-nitro-L-arginine methyl-ester (L-NAME, Sigma-Aldrich, St. Louis, Mo.). A bolus of 25 mg/kg L-NAME was injected IV 1 h before transfusion (Weimann et al., Anesthesiology 2000; 92:1702-12). Concomitantly, an infusion of 5 mg/kg/h L-NAME was started and continued throughout the study. […] NOS-independent systemic vasodilation was also assessed by intravenous injection of sodium nitroprusside (Sigma-Aldrich) at the end of each experiment.
After L-NAME treatment, a fourth group of lambs (n=4) received fresh PRBCs, and a fifth group (n=5) received stored PRBCs. In the sixth group (n=4), following L-NAME injection, inhalation of 80 ppm nitric oxide at FiO2 0.25 was commenced 10 min prior to transfusion of stored PRBC. Nitric oxide breathing continued throughout the transfusion and for 30 min after transfusion ended.

NOS = assay: Partial inhibition of NOS by L-NAME in lambs (acetylcholine / sodium nitroprusside vasodilation, hemodynamics); type: in vivo
Experimental: as §2

[7] = 25 mg/kg IV bolus plus 5 mg/kg/h infusion

T2 sequence (P69905 2-142 limits assumed): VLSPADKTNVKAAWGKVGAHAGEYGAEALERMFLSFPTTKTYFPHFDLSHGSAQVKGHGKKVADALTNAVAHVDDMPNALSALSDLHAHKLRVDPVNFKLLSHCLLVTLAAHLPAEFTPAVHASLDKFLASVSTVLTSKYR
T2 sequence (P68871 2-147 limits assumed): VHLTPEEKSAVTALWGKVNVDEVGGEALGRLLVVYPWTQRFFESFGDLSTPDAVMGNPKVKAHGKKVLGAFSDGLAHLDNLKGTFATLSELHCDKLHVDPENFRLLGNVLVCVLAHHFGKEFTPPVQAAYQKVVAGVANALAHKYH
T3 sequence (P69905 2-142 limits assumed): as the sequence (P69905 2-142 limits assumed) above
T3 sequence (P68871 2-147 limits assumed): as the sequence (P68871 2-147 limits assumed) above
T1 sequence (P01942 2-142 limits assumed): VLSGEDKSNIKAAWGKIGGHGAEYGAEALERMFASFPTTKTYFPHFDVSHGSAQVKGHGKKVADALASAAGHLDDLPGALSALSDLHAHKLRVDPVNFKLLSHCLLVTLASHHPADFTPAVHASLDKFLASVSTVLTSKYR
T1 sequence (P02088 2-147 limits assumed): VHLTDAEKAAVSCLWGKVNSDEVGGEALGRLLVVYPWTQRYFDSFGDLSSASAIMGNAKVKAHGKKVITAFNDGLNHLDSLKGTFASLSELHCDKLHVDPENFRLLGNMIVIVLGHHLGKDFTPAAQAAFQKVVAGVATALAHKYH

With CNCCCCCCN(C)/[N+]([O-])=N/O [MAHMA/NO, (Z)-1-[N-Methyl-N-[6-(N-methylammoniohexyl)amino]]diazen-1-ium-1,2-diolate] the Supernatant methemoglobin (supernatant hemoglobin [1]; 1 mM) was 70%, the “Level of cell-free hemoglobin in the supernatant” value (supernatant hemoglobin [1]) was “decreases upon addition of MAHMA/NO” and the “Red blood cell hemoglobin oxidized” value (supernatant hemoglobin [2]; 0.5 mM) was 15%. The “Supernatant hemoglobin oxidized to methemoglobin” value (supernatant hemoglobin [2]; 0.5 mM) was 99%, the “Hemolysis after addition of MAHMA/NO” value (supernatant hemoglobin [2]) was “no further hemolysis” and the “Hypertensive effect caused by infusion of stored red blood cells” value [3] was “attenuated the hypertensive effect”.
With [N]=O [nitric oxide] the “Human red cell hemoglobin converted to methemoglobin” value (human hemoglobin) was “only a few percent”, the “Supernatant oxyhemoglobin converted to methemoglobin” value (human hemoglobin; flow 5, 7.5, 10 ml/min, adsol-preserved human RBC) was “approximately 50%” and the “PAP with transfusion of stored PRBCs while breathing nitric oxide” value ([4]; baseline 12±1) was 13±1 mmHg. The “PVRI with transfusion of stored PRBCs while breathing nitric oxide” value ([4]; baseline 107±14) was 105±22 dyn·sec·cm^−5·m^−2, the “Effect of breathing nitric oxide on systemic hypertension induced by SRBC transfusion” value [5] was “completely prevented the systemic hypertension” and the “Effect of inhalation of nitric oxide on MAP” value ([6]; 80 ppm) was “did not alter MAP”. For the same compound, the “Effect of concurrent inhalation of nitric oxide on PAP and PVRI” value ([6]; 80 ppm, stored PRBC transfusion) was “reduced the PAP and PVRI to baseline” and the “Time after end of nitric oxide breathing at which PAP and PVRI returned to pre-transfusion levels” value [6] was 60 min.
With COC(=O)[C@@H](N)CCCNC(=N)N[N+](=O)[O-] [L-NAME, N^G-nitro-L-arginine methyl-ester] the “Reduction in the ability of acetylcholine infusion to induce systemic vasodilation” value (NOS; [7]) was 50%, the “Vasodilator response to intravenous bolus of sodium nitroprusside” value (NOS; [7]) was “did not alter the vasodilator response” and the “Cardiac index and heart rate after L-NAME infusion” value (NOS; awake lambs) was “decreased”. The “MAP, PAP, central venous pressure, PCWP, systemic and pulmonary vascular resistance indices after L-NAME infusion” value (NOS; awake lambs) was “increased”.

Source: patent publication US9572833B2, “Treatment of red blood cells” (The General Hospital Corporation, priority 2011, dated 2017)
